Assay [1] is filed under the species Mus musculus. The assay can be described thus: Effect tested against murine sarcoma S-180 cells; Inactive. It counts as functional, cell-based.
The species named for assay [2] is Mus musculus. The assay can be described thus: Effect tested against murine leukemia L1210 cells; Inactive. It counts as functional, cell-based.

The source made the active and inactive calls. The rule behind the calls is not given here.

Consider `Nc1ccnc2c1ccn2C1O[C@H](CO)[C@@H](O)[C@H]1O` (some centres not stated), for which the result in the assay filed under Mus musculus [1] and in the assay filed under Mus musculus [2] was inactive.

(Values after ChEMBL document CHEMBL1121962, “Synthesis of 4-amino-1-beta-D-ribofuranosyl-1H-pyrrolo[2,3-b]pyridine (1-deazatubercidin) as a potential antitumor agent” (J Med Chem, 1982).)
